Laboratory results reported in patent US12077786B2, “Methods of cell selection and modifying cell metabolism” (LONZA LTD, priority 2018, dated 2024).

Tests used:
[1] = system: cell pools constructed using the P5CS/eGFP vector (GSKO cells); assay: P5CS/eGFP cell pools grown without proline with P5CS inhibitor, 96 deep well plates; format: cell-based, Chinese hamster; conditions: with increase in inhibitor concentration; media lacking proline; 24-216 hours
Description: FIGS. 8A-8F are a series of diagrams showing cell pools generated using P5CS overexpression and cultured in the absence of proline, and in the presence of L-azetidine-2-carboxylic acid, a P5CS inhibitor. L-azetidine-2-carboxylic acid was added at a variety of different concentrations and cells were cultured in 96 deep well plates for 9 days. These cells were analyzed for cell growth, as measured by viable cell concentration (FIG. 8A) and culture viability (FIG. 8B). Cells were also analyzed for mean culture fluorescence (FIG. 8C) and percentage of cells exceeding the predetermined thresholds of 10^2 (FIG. 8D) and 10^3 (FIG. 8E).
FIGS. 9A-9F are a series of diagrams showing cell pools generated using P5CS overexpression and cultured in the absence of proline, and in the presence of 3,4-dehydro-L-proline, a P5CS inhibitor. 3,4-dehydro-L-proline was added at a variety of different concentrations and cells were cultured in 96 deep well plates for 9 days. These cells were analyzed for cell growth, as measured by viable cell concentration (FIG. 9A) and culture viability (FIG. 9B). Cells were also analyzed for mean culture fluorescence (FIG. 9C) and percentage of cells exceeding the predetermined thresholds of 10^2 (FIG. 9D) and 10^3 (FIG. 9E).
FIGS. 10A-10F are a series of diagrams showing cell pools generated using P5CS overexpression and cultured in the absence of proline, and in the presence of L-4-thiazolidinecarboxylic acid, a P5CS inhibitor. L-4-thiazolidinecarboxylic acid was added at a variety of different concentrations and cells were cultured in 96 deep well plates for 9 days. These cells were analyzed for cell growth, as measured by viable cell concentration (FIG. 10A) and culture viability (FIG. 10B). Cells were also analyzed for mean culture fluorescence (FIG. 10C) and percentage of cells exceeding the predetermined thresholds of 10^2 (FIG. 10D) and 10^3 (FIG. 10E).
In order to assess the capacity of the proline/P5CS system to generate recombinant cell pools, vectors comprising the P5CS gene and a gene of interest were transfected into cells and subsequently cultured in the absence of proline in an attempt to generate recombinant cell pools. Briefly, 1×10^7 Lonza's GSKO cells were electroporated with 20 μg plasmid which was first linearized using PvuI restriction enzyme (NEB) and purified using sodium acetate and ethanol precipitation. The construct used contained both the P5CS gene for evaluation as a selection marker and eGFP as a reporter gene. Transfections were carried out in CM76 medium in the absence of proline but supplemented with L-glutamine to achieve a final concentration of 6 mM. The cells were then cultured in 25 ml of this medium in a T75 flask for 10 days before being transferred to 10 ml suspension culture, also in proline absent medium. The resulting pool was analyzed using flow cytometry. Cell samples were first centrifuged at 1,000 rpm for 5 minutes and resuspended in 500 μl PBS. Samples were then loaded onto the probe of a FACScalibur™ (BD biosciences) and fluorescence intensity was measured in relation to the cell count. The forward scatter (FSC) was measure using the E-1 amplifier and side scatter (SSC) set to 465 whilst FL1 recorded cells at 473; all settings were converted to Log scales. In order to facilitate the adherence of suspension cells, coverslips were first submerged in poly-L-lysine and incubated for 15 minutes at room temperature. Coverslips were then removed and left to dry in a sterile environment before transferring to a 24 well plate. Cells were cultured at 37° C. overnight to facilitate adhering of cells to the coverslip before aspirating the medium and adding 250 μl of 4% paraformaldehyde in PBS and incubating for 20 minutes at 37° C. to fix cells. Subsequently two 1 ml PBS washes were carried out before 250 μl 0.1% triton X100 in PBS was added and incubated for 5 minutes at room temperature to permeablize cells. […]

[2] = system: cell pools constructed using the P5CS/eGFP vector (GSKO cells); assay: P5CS/eGFP cell pools grown without proline with P5CS inhibitor, static 24 well plates; format: cell-based, Chinese hamster; conditions: with increase in inhibitor concentration; media lacking proline; 24-216 hours
Description: FIGS. 11A-11E are a series of diagrams showing analysis of cell pools generated using P5CS overexpression and cultured in the absence of proline, and in the presence of L-azetidine-2-carboxylic acid, a P5CS inhibitor. L-azetidine-2-carboxylic acid was added at a variety of different concentrations and cells were cultured in static 24 well plates for 9 days. These cells were analyzed for cell growth, as measured by viable cell concentration (FIG. 11A) and culture viability (FIG. 11B). Cells were also analyzed for mean culture fluorescence (FIG. 11C) and percentage of cells exceeding the predetermined thresholds of 10^2 (FIG. 11D) and 10^3 (FIG. 11E).
FIGS. 12A-12E are a series of diagrams showing analysis of cell pools generated using P5CS overexpression and cultured in the absence of proline, and in the presence of 3,4-dehydro-L-proline, a P5CS inhibitor. 3,4-dehydro-L-proline was added at a variety of different concentrations and cells were cultured in static 24 well plates for 9 days. These cells were analyzed for cell growth, as measured by viable cell concentration (FIG. 12A) and culture viability (FIG. 12B). Cells were also analyzed for mean culture fluorescence (FIG. 12C) and percentage of cells exceeding the predetermined thresholds of 10^2 (FIG. 12D) and 10^3 (FIG. 12E). […]

| Structure (SMILES) | cell growth (viable cell number) [1] | mean fluorescence (eGFP) [1] | cell growth (viable cell number) [2] | mean fluorescence (eGFP) [2] |
| --- | --- | --- | --- | --- |
| O=C(O)[C@@H]1C=CCN1 [3,4-dehydro-L-proline] | slower cell growth | higher mean fluorescence |  |  |
| O=C(O)[C@@H]1CCN1 [L-azetidine-2-carboxylic acid] | slower cell growth | higher mean fluorescence | slower cell growth | higher mean fluorescence |
| O=C(O)[C@@H]1CSCN1 [L-4-thiazolidinecarboxylic acid] | slower cell growth | higher mean fluorescence |  |  |
